Measurements: paper PMC4128814, “A High Throughput Screen Identifies Potent and Selective Inhibitors to Human Epithelial 15-Lipoxygenase-2” (PLoS ONE, 2014)
Where two headings read alike, the source gives them in different places.

Experiments:
[1] = molecular target: T1, 15-LOX-2 (Homo sapiens, UniProt O15296); experiment: Lipoxygenase UV-Vis assay, 15-LOX-2; format: biochemical; settings: for inhibition at 25 µM: read-out: % Inhibition at 25 μM; for potency relative to parent compound: 15-LOX-2
T1 construct: His6 (N); made in house
T1 sequence (O15296 1-676): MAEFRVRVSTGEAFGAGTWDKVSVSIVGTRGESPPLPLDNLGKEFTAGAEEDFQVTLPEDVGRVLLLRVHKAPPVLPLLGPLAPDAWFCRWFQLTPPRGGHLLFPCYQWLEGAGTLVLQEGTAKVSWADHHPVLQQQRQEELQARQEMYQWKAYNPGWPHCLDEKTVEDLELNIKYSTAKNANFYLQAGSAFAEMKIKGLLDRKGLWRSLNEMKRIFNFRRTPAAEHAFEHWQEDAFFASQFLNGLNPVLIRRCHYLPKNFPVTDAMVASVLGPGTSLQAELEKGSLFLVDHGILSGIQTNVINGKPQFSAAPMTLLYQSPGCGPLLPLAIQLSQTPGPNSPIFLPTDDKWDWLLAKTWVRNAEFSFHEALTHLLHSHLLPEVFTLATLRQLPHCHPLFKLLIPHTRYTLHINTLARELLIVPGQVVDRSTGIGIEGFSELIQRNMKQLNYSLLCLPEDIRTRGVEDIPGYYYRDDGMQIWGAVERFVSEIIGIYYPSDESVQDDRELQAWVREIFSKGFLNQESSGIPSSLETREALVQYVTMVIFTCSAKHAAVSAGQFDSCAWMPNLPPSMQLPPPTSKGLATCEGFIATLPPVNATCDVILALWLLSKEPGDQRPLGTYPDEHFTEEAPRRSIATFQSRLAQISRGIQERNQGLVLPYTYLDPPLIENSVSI
Description: The reactions were initiated by adding 200 nM 15-LOX-2, 30 nM 12-LOX, 40 nM 15-LOX-1, or approximately 100–300 nM (5–10 µL) of 5-LOX crude extract to a cuvette with 2 mL reaction buffer, constantly stirred using a magnetic stir bar at room temperature (22°C). Reaction buffers used for various LOX isozymes were as follows: 25 mM HEPES (pH 7.3), 0.3 mM CaCl2, 0.1 mM EDTA, 0.2 mM ATP, 0.01% Triton X-100, 10 µM AA for the crude, ammonium sulfate precipitated 5-LOX; and 25 mM HEPES (pH 7.5), 0.01% Triton X-100, 10 µM AA for 15-LOX-2, 15-LOX-1, and 12-LOX. The substrate concentration was quantitatively determined by allowing the enzymatic reaction to go to completion in the presence of 15-LOX-2. […] The data were then plotted against inhibitor concentration, followed by a hyperbolic saturation curve fit (assuming total enzyme concentration [E]≪IC50). […] All inhibitors were stored at −20°C in DMSO. NDGA was utilized as positive control for the selectivity assays for the various LOX isozymes.
Once the two lead compounds were identified, a limited series of related compounds were identified and screened to investigate structure/activity relationships (Figure 3). […] We are currently exploring this line of inquiry.

[2] = molecular target: T1, 15-LOX-2; settings: control molecules known not to inhibit 15-LOX-2; cited from earlier work
[3] = 25 µM inhibitor, 15-LOX-2, 10 µM AA

Structure (SMILES) | inhibition at 25 µM [1, 3] | IC50 ([1]; read-out: 15-LOX-2 IC50) | also measured
Cc1ccc(NC(=O)CSc2ncn(-c3ccccc3)n2)cc1C [MLS000594570] | 0% | > 100 µM | 
Clc1cccc(CSc2ncn(-c3ccccc3)n2)c1 [MLS000594591] | 65% | 5.4 µM | 
Clc1ccc(-c2nnc(CCc3ccccc3)o2)c(Cl)c1 [MLS000325223] | 4% | > 100 µM | 
c1ccc(CSc2ncn(-c3ccccc3)n2)cc1 [MLS000108825] | 56% | 6.4 µM | 
Clc1ccccc1CSc1ncn(-c2ccccc2)n1 [MLS000550113] | 53% | 9 µM | 
Clc1ccc(CSc2ncn(-c3ccccc3)n2)cc1 [MLS000550104] | 94% | 0.74 µM | potency relative to parent compound [1]: approximately 4 fold
CC(=O)NC(c1cccs1)c1cc(Br)c2cccnc2c1O (stereo not shown) [ML127] |  |  | IC50 [2]: > 100 µM
O=[N+]([O-])c1cccc(-c2nnc(C34CC5CC(CC(C5)C3)C4)o2)c1 [MLS000585389] | 14% | > 100 µM | 
CCC1CCC(c2nnc(-c3ccc(Br)cc3)o2)CC1 (stereo not shown) [MLS000578382] | 28% | > 50 µM | 
O=[N+]([O-])c1cc(-c2nnc(C34CC5CC(CC(C5)C3)C4)o2)cc([N+](=O)[O-])c1 [MLS000544312] |  |  | IC50 [1]: > 100 µM; inhibition at 25 µM [1]: 0%
c1cncc(-c2nnc(C3CCCCC3)o2)c1 [MLS000033229] | 4% | > 100 µM | 
CC(=O)Nc1ccc(C(=O)CSc2ncn(-c3ccccc3)n2)cc1 [MLS000108839] | 0% | > 100 µM | 

Continued, in another order:

inhibition at 25 µM [1, 3] | IC50 ([1]; read-out: 15-LOX-2 IC50) | Structure (SMILES) | also measured
66% | 1.1 µM | O=C(c1nnc(-c2ccc(Cl)cc2)o1)C1CCCC1 [MLS001007221] | potency relative to parent compound [1]: comparable activity
3% | > 100 µM | O=C(c1nnc(-c2ccccc2)o1)C1CC1 [MLS001033918] | 
5% | > 100 µM | CCC1CCC(c2nnc(-c3ccc([N+](=O)[O-])cc3)o2)CC1 (stereo not shown) [MLS000723362] | 
6% | > 100 µM | O=C(CCc1nnc(-c2ccccc2)o1)c1ccc(Cl)cc1 [MLS001019001] | 
0% | > 100 µM | CCCc1nnc(-c2ccc(OC)cc2)o1 [MLS000756111] | 
4% | > 100 µM | Clc1ccc(-c2nnc(C3CC3)o2)cc1 [MLS000859524] | 
